Molecules are shown by their SMILES.

Here are results for 17 compounds from patent publication US9845306B2, “Cationic lipid” (Kyowa Hakko Kirin Co., Ltd., priority 2010, dated 2017).

The nature of one series: Average particle diameter of the liposomes in each preparation (Zetasizer Nano ZS). As to conditions: liposome preparation of Example 118: compound/PEG-DMPE/DSPC/cholesterol with apo-b siRNA. It is filed as physicochemical. The source says: Preparations were produced using the compounds obtained in Examples 1 to 117, as follows.
Anti-APO-B siRNA was used as the nucleic acid. Anti-APO-B siRNA suppresses expression of an apolipoprotein-B (hereinafter, “apo-b”) gene and has a sense strand with the base sequence 5′-GmUCAmUCACACmUGAAmUACCAAmU-3′ (the sugars attached to the bases appended with m are 2′-O-methyl-substituted riboses), and an antisense strand with the base sequence 5′-[…]-3′ (the 5′-end is phosphorylated). The sense strand and the antisense strand were obtained from Nippon EGT or Hokkaido System Science Co., Ltd., and annealed to prepare the nucleic acid (hereinafter, “apo-b siRNA”).
A solution comprising the constituent components of a lipid membrane was prepared by dissolving each of the weighed samples in 90 vol % ethanol in 8.947/1.059/5.708/13.697 mmol/L [compounds 1 to 117 obtained in Examples 1 to 117/1,2-dimyristoyl-sn-glycero-3-phosphoethanolamine-A-(methoxy(polyethylene glycol)-2000) (PEG-DMPE, N-(carbonylmethoxypolyethylene glycol 2000)-1,2-dimyristoyl-sn-glycero-3-phosphoethanolamine sodium salt, NOF Corporation)/distearoylphosphatidyl choline (DSPC, 1,2-distearoyl-sn-glycero-3-phosphocholine, NOF Corporation)/cholesterol (Avanti Polar Lipids)]. Separately, apo-b siRNA/distilled water (24 mg/mL) was diluted with a Tris-EDTA buffer (200 mM Tris-HCl, 20 mM EDTA, Invitrogen) and a 20 mM citric acid buffer (pH 5.0) to prepare a 1.5 mg/mL apo-b siRNA aqueous solution (2 mM Tris-EDTA buffer, pH 5.0).
The resulting lipid solution was heated to 37° C., and a […] portion was transferred to a preparation container. The apo-b siRNA aqueous solution (100 μL) was then added thereto while being stirred. Then, a 20 mM citric acid buffer (containing 300 mM NaCl, pH 6.0; 200 μL) was added to the lipid nucleic acid mixed suspension (200 μL) while being stirred. The siRNA concentration was brought to 10 μM by dropping a Dulbecco phosphate buffer (DPBS, Invitrogen; 662 μL), and preparations (compositions comprising compounds 1 to 117 and the nucleic acid) were obtained.
The average particle diameter of the liposomes in each preparation was measured with a particle diameter measurement device (Malvern; Zetasizer Nano ZS).
Consider `CCCCC/C=C\C/C=C\CCCCCCCCO[C@H]1CNC[C@@H]1OCCCCCCCC/C=C\C/C=C\CCCCC` [Compound 43, (3S,4S)-3,4-bis((9Z,12Z)-Octadec-9,12-dienyloxy)pyrrolidine], for which the “Particle diameter of Preparetion” value amounted to 150.0 nm.

For `CCCCC/C=C\C/C=C\CCCCCCCC(=O)OC1CN(CC(O)CO)C[C@H]1OC(=O)CCCCCCC/C=C\C/C=C\CCCCC` (stereo partly drawn) [Compound 53, (3R,4R)-1-(2,3-diHydroxypropyl)pyrrolidine-3,4-diyl di((9Z,12Z)-octadec-9,12-enoate)], the “Particle diameter of Preparetion” value came out at 152.4 nm.

Consider `CCCCC/C=C\C/C=C\CCCCCCCCOC1CN(CCCN(C)C)C[C@H]1OCCCCCCCC/C=C\C/C=C\CCCCC` (stereo partly drawn) [Compound 59, (3R,4R)-1-(3-N,N-Dimethylaminopropyl)-3,4-bis((9Z,12Z)-octadec-9,12-dienyloxy)pyrrolidine], for which the “Particle diameter of Preparetion” value was found to be 116.7 nm.

With `CCCCC/C=C\C/C=C\CCCCCCCC(=O)OC1CN(C(=O)CN)C[C@H]1OC(=O)CCCCCCC/C=C\C/C=C\CCCCC` (stereo partly drawn) [Compound 65, (3R,4R)-1-(2-aminoacetyl)pyrrolidine-3,4-diyl di((9Z,12Z)-octadec-9,12-enoate)], the “Particle diameter of Preparetion” value stood at 128.9 nm.

For the compound `CCCCC/C=C\C/C=C\CCCCCCCCO[C@H]1CN(C)C[C@@H]1OCCCCCCCC/C=C\C/C=C\CCCCC` [Compound 50, (3S,4S)-1-Methyl-3,4-bis((9Z,12Z)-octadec-9,12-dienyloxy)pyrrolidine], the “Particle diameter of Preparetion” value was 129.2 nm.

On to `CCCCC/C=C\C/C=C\CCCCCCCCOC1CN(CCC(=O)N(C)C)C[C@H]1OCCCCCCCC/C=C\C/C=C\CCCCC` (stereo partly drawn) [Compound 58, 3-((3R,4R)-3,4-bis((9Z,12Z)-Octadec-9,12-dienyloxy)pyrrolidin-1-yl)-N,N-dimethyl propanamide], for which the “Particle diameter of Preparetion” value is 151.8 nm.

On to `CCCCC/C=C\C/C=C\CCCCCCCC(=O)OC1CN(C(=O)[C@@H](N)CCCCN)C[C@H]1OC(=O)CCCCCCC/C=C\C/C=C\CCCCC` (stereo partly drawn) [Compound 66, (3R,4R)-1-((S)-2,6-Diaminohexanoyl)pyrrolidine-3,4-diyl di((9Z,12Z)-octadec-9,12-enoate)], for which the “Particle diameter of Preparetion” value is 137.4 nm.

As to `CCCCC/C=C\C/C=C\CCCCCCCCCCOCC1CN(C(=O)[C@@H](N)CCCCN)C[C@H]1COCCCCCCCCCC/C=C\C/C=C\CCCCC` (stereo partly drawn) [Compound 115, trans-1-((S)-2,6-Diaminohexanoyl)-3,4-bis(((11Z,14Z)-icos-11,14-dienyloxy)methyl) pyrrolidine], the “Particle diameter of Preparetion” value amounted to 152.8 nm.

With `CCCCC/C=C\C/C=C\CCCCCCCCO[C@@H]1CN(CC(C)O)C[C@H]1OCCCCCCCC/C=C\C/C=C\CCCCC` (mixture of isomers) [Compound 54, 1-((3R,4R)-3,4-bis((9Z,12Z)-Octadec-9,12-dienyloxy)pyrrolidine-1-yl)propan-2-ol], the “Particle diameter of Preparetion” value was 148.9 nm.

In the case of `CCCCC/C=C\C/C=C\CCCCCCCCOC1CN(CC(O)COC)C[C@H]1OCCCCCCCC/C=C\C/C=C\CCCCC` (stereo partly drawn) [Compound 55, 1-(3R,4R)-3,4-bis(((9Z,12Z)-Octadec-9,12-dienyloxy)pyrrolidine-1-yl)-3-methoxypropan-2-ol], the “Particle diameter of Preparetion” value amounted to 139.6 nm.

The same series, now with this note: preparations of Comparative Examples 1 to 8, made as in Example 118 with apo-b siRNA.
Consider `CCCCCCCC/C=C\CCCCCCCC(=O)OCCN(C)CCOC(=O)CCCCCCC/C=C\CCCCCCCC` [Compound A-6, N-Methyl-N,N-bis(2-((Z)-1-oxooctadec-9-enyloxy)ethyl)amine, reference compound], for which the “average particle diameter of the liposomes in the preparation” value (from here on “average particle diameter”) was determined as 139.5 nm.

With `CCCCC/C=C\C/C=C\CCCCCCCC(=O)OCCN(C)CCOC(=O)CCCCCCC/C=C\C/C=C\CCCCC` [Compound A-5, N-Methyl-N,N-bis(2-((9Z,12Z)-1-oxooctadec-9,12-dienyloxy)ethyl)amine, reference compound], the “average particle diameter” value is given as 136.4 nm.

Consider `CCCCCCCC/C=C\CCCCCCCCO[C@@H]1CN(Cc2ccccc2)C[C@H]1OCCCCCCCC/C=C\CCCCCCCC` [Compound VI-4, (3R,4R)-1-Benzyl-3,4-bis((Z)-octadec-9-enyloxy)pyrrolidine, reference compound], for which the “average particle diameter” value stood at 157.8 nm.

Consider `CCCCC/C=C\C/C=C\CCCCCCCCO[C@@H]1CN(Cc2ccccc2)C[C@H]1OCCCCCCCC/C=C\C/C=C\CCCCC` [Compound VI-3, (3R,4R)-1-Benzyl-3,4-bis((9Z,12Z)-octadec-9,12-dienyloxy)pyrrolidine, reference compound], for which the “average particle diameter” value is on record as 167.8 nm.

Consider `CCCCCCCC/C=C\CCCCCCCC(=O)O[C@@H]1CN(C)C[C@H]1OC(=O)CCCCCCC/C=C\CCCCCCCC` [Compound A-4, (3R,4R)-1-Methylpyrrolidine-3,4-diyl di((Z)-octadec-9-enoate), reference compound], for which the “average particle diameter” value is on record as 131.1 nm.

Take `CCCCC/C=C\C/C=C\CCCCCCCC(=O)O[C@@H]1CN(C)C[C@H]1OC(=O)CCCCCCC/C=C\C/C=C\CCCCC` [Compound A-3, (3R,4R)-1-Methylpyrrolidine-3,4-diyl di((9Z,12Z)-octadec-9,12-dienoate), reference compound]: the “average particle diameter” value stood at 141.0 nm.

For the compound `CCCCCCCC/C=C\CCCCCCCC(=O)OCC(C[N+](C)(C)C)OC(=O)CCCCCCC/C=C\CCCCCCCC.[Cl-]` (centres unmarked) [DOTAP, N-(2,3-di-(9-(Z)-octadecenoyloxy))-prop-1-yl-N,N,N-trimethylammonium chloride, reference compound], the “average particle diameter” value came to 104.0 nm.
